Reference: US9822170B2, “Co-use of a clusterin inhibitor with an EGFR inhibitor to treat cancer” (ALETHIA BIOTHERAPEUTICS INC., priority 2012, dated 2017)

B1: 16B5: murine anti-clusterin (sCLU) antibody that blocks EMT; VL SEQ ID NO.:25, VH SEQ ID NO.:29 (antibody, V domains shown)
VH: EVQLQQSGAELVKPGASVRLSCTTSGFNIKDIYMHWVKQRPEQGLEWIGRIDPAYGNTKYDPKFQGKATITADTSSNTAYLQLSSLTSEDTAVYYCARRYDTAMDYWGQGTSVTVSS
VL: DIVMSQSPSSLAVSAGEKVTMSCKSSQSLLNSRTRKNYLAWYQQKPGQSPKLLIYWASTRESGVPDRFTGSGSGTDFTLTISSVQAEDLAVYYCKQSYNLWTFGGGTKLEFK
modifications: murine 16B5 heavy chain variable region; murine 16B5 light chain variable region

Key:
H460 cells = experiment: CellTiter-Glo Luminescent Cell Viability Assay; format: cell-based, human; conditions: sCLU 0.25 μg/ml or TGFβ 2 nM for 48 h, then erlotinib 20 μM for 96 h
Protocol: (§1) Following this induction, the cells were treated with erlotinib (20 μM) for 96 h and the number of cells was determined using the CellTiter-Glo® Luminescent Cell Viability Assay (Promega, Madison, Wis.). As a control, additional cells were not induced with sCLU or TGFβ. […] We also compared the response to erlotinib in cells that were induced to undergo an EMT with either sCLU or TGFβ.

H1299 cells = experiment: CellTiter-Glo Luminescent Cell Viability Assay; format: cell-based, human
Protocol: as §1

cancer cells = conditions: incubated with cancer cells; WO2007/030930, WO2011/063523; cited from earlier work

| Molecule | responsiveness to erlotinib after stimulation of EMT (H460 cells) | responsiveness to erlotinib after stimulation of EMT (H1299 cells; H1299 cells, sCLU 0.25 μg/ml or TGFβ 2 nM for 48 h, then erlotinib 20 μM for 96 h) | sensitivity of the cells to erlotinib (H1299 cells; H1299 compared with H460 cells, erlotinib 20 μM for 96 h) | blocking of EMT (maintenance of membrane E-cadherin expression) (cancer cells) |
| --- | --- | --- | --- | --- |
| C#Cc1cccc(Nc2ncnc3cc(OCCOC)c(OCCOC)cc23)c1 [erlotinib] | did not change the responsiveness | did not change the responsiveness | H1299 cells were more sensitive to erlotinib than the H460 cells | – |
| B1 | – | – | – | could block EMT |
